Measurements as given in patent US6340694B1, “Diarylbenzopyran derivatives as cyclooxygenase-2 inhibitors” (Pacific Corporation, priority 1998, dated 2002).

Experiments:
COX-2 = target: T1, COX-2 (Mus musculus, UniProt Q05769); experiment: Evaluation of COX-2's inhibition efficacy (PGE2 radioimmuno assay, LPS-induced, aspirin-pretreated peritoneal macrophages); type: cell-based, C57BL/6 mouse; details: for inhibition at 0.1 µg/mL: 0.1 μg/ml; for inhibition at 1 µg/mL: 1 μg/ml; for inhibition at 10 µg/mL: 10 μg/ml
T1 construct: endogenous in cells; host or cells: peritoneal macrophages of C57BL/6 mouse, aspirin-pretreated, LPS-induced
T1 sequence (Q05769 18-604): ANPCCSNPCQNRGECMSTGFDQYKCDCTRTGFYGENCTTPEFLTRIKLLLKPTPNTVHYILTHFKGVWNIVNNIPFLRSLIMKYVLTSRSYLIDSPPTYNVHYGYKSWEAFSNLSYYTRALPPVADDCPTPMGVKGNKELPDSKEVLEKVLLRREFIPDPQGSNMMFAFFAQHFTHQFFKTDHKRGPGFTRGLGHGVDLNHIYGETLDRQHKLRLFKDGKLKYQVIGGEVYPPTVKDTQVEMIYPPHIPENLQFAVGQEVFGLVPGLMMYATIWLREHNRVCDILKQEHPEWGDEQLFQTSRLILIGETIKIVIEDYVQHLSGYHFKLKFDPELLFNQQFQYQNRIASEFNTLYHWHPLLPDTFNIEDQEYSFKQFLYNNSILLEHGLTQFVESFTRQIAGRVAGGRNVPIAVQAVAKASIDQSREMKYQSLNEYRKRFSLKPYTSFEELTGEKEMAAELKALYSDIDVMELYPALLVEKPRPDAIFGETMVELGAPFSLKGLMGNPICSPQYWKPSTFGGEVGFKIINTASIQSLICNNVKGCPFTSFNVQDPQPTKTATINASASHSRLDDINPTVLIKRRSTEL
Summary of the method: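 C57BL/6 mouse peritoneal macrophages, adhered 2 h at 37 °C, were LPS-stimulated to induce COX-2. Cells were then treated 10 min with compound, followed by 10 min with 10 μM arachidonic acid (final). PGE2 in the supernatant was quantified by radioimmunoassay.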

[1] = system: edema in mouse's foot induced by carrageenan; experiment: Depressant action on edema in mouse's foot induced by carrageenan; type: in vivo, Male Sprague-Dawley rat; details: po; for inhibition in vivo at 50 mg/kg: 50 mg/kg p.o.; for inhibition in vivo at 30 mg/kg: 30 mg/kg p.o.
Method: (§1) Regarding the compounds in some of the above Examples and indomethacin, depressant action on edema in mouse's ear and depressant action on edema in mouse's foot being induced by carrageenan are being measured by the following 2 methods. And the results of the depressant action on edema in mouse's ear and depressant action on edema in mouse's foot being induced by carrageenan are shown in Table 5.
2. Measurement of Depressant Action on Edama in Mouse's Foot Induced by Carrageenan
At 1 hour after oral administering to Male-Sprague-Dawley-white mouse, weighing 150˜200 g, with a suspended solution of appropriate amount of sample in 0.5% of carboxymethyl cellulose and 0.2% of TWEN solution, edema on the right foot of mouse was induced by injecting 0.1 ml(1%) of carrageenan-saline solution. Right after the inducement of edema by carrageenan and 3 hours later, the edema rate was estimated by measuring white mouse's foot volume with Displacement Plethysmometer(Ugo Basile, Italy). Carrageenan injection Drug was administered 1 hour before the carrageenan injection. Depressant rate of edema is produced by the following equation 1.
% Depressant rate of edema=(1 ? Vtreated group/ ? Vcontrol group)×100 ? V: change of foot volume [Equation 1]

edema in mouse's ear = experiment: Depressant action on edema in mouse's ear (TPA-induced, myeloperoxidase); type: in vivo, ICR mouse; details: topical on ear, TPA 25 μg, 5 hours
Method: as §1
1. Measurement of Depressant Action on Edama in Mouse's Ear
At 30 minutes after coating the left ear of ICR mouse, weighing 20 g, with a solution of appropriate amount of sample in 20 μl of mixed solvent DMSO:acetone(1:9), 25 μg of TPA(tetradecanoylphorbol acetate) was coated on both ears. The determination of depressant action on edama was made in 5 hours later by the number of neutral granulocyte gathering in the ear after inducing TPA inflammation. The number of neutral granulocyte was estimated by measuring the activation of myeloperoxidase.

COX-1 = target: T2, COX-1 (Mus musculus, UniProt P22437); experiment: Evaluation of COX-1's inhibition efficacy (macrophages without aspirin and LPS pre-treatment); type: cell-based, C57BL/6 mouse; details: 10 μg/ml
T2 construct: there is no pre-treatment of aspirin and LPS in the adhesion of macrophage; endogenous in cells; host or cells: peritoneal macrophages of C57BL/6 mouse, without aspirin and LPS pre-treatment
T2 sequence (P22437 27-602): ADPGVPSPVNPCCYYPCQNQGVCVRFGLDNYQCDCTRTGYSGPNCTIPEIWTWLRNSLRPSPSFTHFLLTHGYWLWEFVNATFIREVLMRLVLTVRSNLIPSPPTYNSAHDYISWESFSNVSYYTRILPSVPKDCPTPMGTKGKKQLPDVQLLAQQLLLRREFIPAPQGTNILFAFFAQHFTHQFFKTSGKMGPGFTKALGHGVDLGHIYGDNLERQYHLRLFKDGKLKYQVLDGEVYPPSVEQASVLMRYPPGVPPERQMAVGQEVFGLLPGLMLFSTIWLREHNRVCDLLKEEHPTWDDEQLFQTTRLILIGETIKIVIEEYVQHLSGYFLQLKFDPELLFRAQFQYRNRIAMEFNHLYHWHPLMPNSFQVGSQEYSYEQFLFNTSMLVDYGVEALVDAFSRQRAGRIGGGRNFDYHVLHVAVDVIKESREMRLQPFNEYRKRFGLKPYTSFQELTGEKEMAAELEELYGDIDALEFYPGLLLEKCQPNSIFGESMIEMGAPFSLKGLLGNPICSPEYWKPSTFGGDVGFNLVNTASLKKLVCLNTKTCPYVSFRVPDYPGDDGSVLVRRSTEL
Summary of the method: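 C57BL/6 mouse peritoneal macrophages (1×10^6 cells/mL) were adhered for 2 h at 37° C without aspirin or LPS pretreatment. Compound was given for 10 min at 37° C, then arachidonic acid (10 μM final) for 10 min. Supernatant PGE2 was measured by radioimmunoassay, with 100% activity set as PGE2 with versus without arachidonic acid.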

[2] = 3 h, read-out: depressant rate of edema rate induced by carrageenan (oral administration), % depression

| SMILES | inhibition at 0.1 µg/mL (COX-2) | inhibition at 1 µg/mL (COX-2) | inhibition in vivo at 50 mg/kg [1, 2] | depressant rate of ear edema, ED50 (edema in mouse's ear) | inhibition at 10 µg/mL (COX-1) | inhibition at 10 µg/mL (COX-2) | melting point | inhibition in vivo at 30 mg/kg [1, 2] | inhibition in vivo at 3 mg/kg ([1]; 3 h, 3 mg/kg p.o., read-out: depressant rate of edema rate induced by carrageenan (oral administration), % depression) | ED50 ([1]; 3 hours after carrageenan, read-out: depressant rate of edema rate induced by carrageenan (oral administration), ED50) |
| --- | --- | --- | --- | --- | --- | --- | --- | --- | --- | --- |
| CS(=O)(=O)c1ccc(-c2oc3ccccc3c(=O)c2-c2ccc(F)cc2)cc1 [Example 1, 3-(4-Fluorophenyl)-2-(4-(methylsulfonyl)phenyl)-4H-1-benzo-pyran-4-one] | 94% | 100% | 43% | 0.4 mg/ear, ED50 | < 5% | – | – | – | – | – |
| Cc1ccc(-c2c(-c3ccc(S(C)(=O)=O)cc3)oc3ccccc3c2=O)cc1 [Example 3, 3-(4-Methylphenyl)-2-(4-(methylsulfonyl)phenyl)-4H-1-benzopyran-4-one] | 13% | 61% | 52% | 1.2 mg/ear, ED50 | – | 72% | 225 °C | – | – | – |
| COc1ccc(-c2c(-c3ccc(S(C)(=O)=O)cc3)oc3ccccc3c2=O)cc1 [Example 10, 3-(4-Methoxyphenyl)-2-(4-(methylsulfonyl)phenyl)-4H-1-benzopyran-4-one] | 14% | 67% | – | 0.6 mg/ear, ED50 | < 5% | 86% | 212 to 213 °C | – | – | – |
| CS(=O)(=O)c1ccc(-c2oc3ccccc3c(=O)c2-c2ccc(Cl)c(Cl)c2)cc1 [Example 11, 3-(3,4-Dichlorophenyl)-2-(4-(methylsulfonyl)phenyl)-4H-1-benzopyran-4-one] | 46% | 89% | – | – | < 5% | – | 164 to 165 °C | 17% | – | – |
| CS(=O)(=O)c1ccc(-c2oc3ccccc3c(=O)c2-c2ccccc2F)cc1 [Example 12, 3-(2-Fluorophenyl)-2-(4-(methylsulfonyl)phenyl)-4H-1-benzopyran-4-one] | – | – | – | 0.4 mg/ear, ED50 | – | – | – | 20% | – | – |
| CS(=O)(=O)c1ccc(-c2oc3ccccc3c(=O)c2-c2cccnc2)cc1 [Example 15, 2-(4-(Methylsulfonyl)phenyl)-3-(3-pyridinyl)-4H-1-benzopyran-4-one] | – | 83% | – | – | 13% | 90% | 220 to 221 °C | 41% | – | – |
| CS(=O)(=O)c1ccc(-c2oc3ccccc3c(=O)c2-c2ccc(F)c(Cl)c2)cc1 [Example 26, 3-(3-Chloro-4-fluorophenyl)-2-(4-(methylsulfonyl)phenyl)-4H-1-benzopyran-4-one] | – | – | 23% | 0.6 mg/ear, ED50 | – | – | – | – | – | – |
| CS(=O)(=O)c1ccc(-c2oc3ccccc3c(=O)c2-c2ccc(Br)cc2)cc1 [Example 28, 3-(4-Bromophenyl)-2-(4-(methylsulfonyl)phenyl)-4H-1-benzopyran-4-one] | – | – | – | 0.8 mg/ear, ED50 | – | – | – | – | – | – |
| CS(=O)(=O)c1ccc(-c2oc3ccc(F)cc3c(=O)c2-c2cccnc2)cc1 [Example 34, 6-Fluoro-2-(4-(methylsulfonyl)phenyl)-3-(3-pyridinyl)-4H-1-benzopyran-4-one] | – | 66% | – | – | 12% | 78% | – | – | 23% | – |
| CS(=O)(=O)c1ccc(-c2oc3ccccc3c(=S)c2-c2ccc(F)cc2)cc1 [Example 36, 3-(4-Fluorophenyl)-2-(4-(methylsulfonyl)phenyl)-4H-1-benzopyran-4-thione] | 56% | 80% | – | 1.0 mg/ear, ED50 | < 5% | 100% | – | 20% | – | – |
| CS(=O)(=O)c1ccc(-c2oc3ccccc3c(=S)c2-c2ccccc2)cc1 [Example 37, 2-(4-(Methylsulfonyl)phenyl)-3-phenyl-4H-1-benzopyran-4-thione] | 47% | 76% | – | – | < 5% | 88% | 204 to 206 °C | 16% | – | – |
| COc1ccc2c(c1)c(CC(=O)O)c(C)n2C(=O)c1ccc(Cl)cc1 [indomethacine, reference compound] | – | – | – | 0.4 mg/ear, ED50 | – | – | – | – | – | 4.3 mg/kg |
